PMC12717099, “Peptidoglycan recruitment by a penicillin binding protein” (Nature Communications, 2025)

Legend:
[1] = test system: PBP5 (PBP5_37-678); test: NMR chemical shift perturbation titration (2D [1H,15N] TROSY, 2D [1H,13C] ILV methyl HMQC) of stem peptides / PG into PBP5; assay type: binding, Enterococcus faecium; conditions: peptides up to 1:80 PBP5:SP (SP3 1:1000); PG 1:0.25-1:5
Method: Data was processed using Topspin 4.1.4 (Bruker) and analyzed using NMRFAM-SPARKY 1.3 and Poky (build number 20240829)[20],[21]. The sequence-specific backbone assignment of PBP5 is publicly available at BMRBID 51690.
SPs (SP1 to SP7) were titrated into 0.5 mM (^2H,^15N)-labeled and 0.1 mM (^2H,^15N)/^13C ILV labeled PBP5 at molar ratios of 0:1, 5:1, 10:1, 20:1, 40:1, 60:1, and 80:1 (stem peptide/SP:PBP5; molar ratios). 2D [^1H,^15N] TROSY or 2D [^1H,^13C] HMQC spectra were recorded for each titration point. SPs were solubilized in NMR buffer. Chemical shift perturbations (Δδ) between PBP5 and SP bound PBP5 spectra were calculated using Eq. 1,1 Δδppm=ΔδH^2+ΔδX/Y^2 where, X is ^15N or ^13C and Y is the constant i.e., 10 for ^15N and 4 for ^13C.
Residues with significant CSPs were identified by calculating the standard deviation of all CSPs (σ), then excluding any CSPs larger than average+2σ, recalculating σ as a new corrected σ0, and then repetitively removing CSPs above 2σ0 until no additional CSPs can be removed. CSPs above ≥2σ2 was the statistical threshold for ^1H/^15N backbone CSP analysis and ≥2xσ1 for ^1H/^13C methyl ILV data for the interaction of SP1 with PBP5. The same threshold values were used for all other peptides to allow for direct comparison with the SP1/PBP5 interaction. The identical significance analysis was also performed for PenG/ceftaroline saturated PBP5 (1:8 molar ratio of PBP5 to β-lactam antibiotics was used to ensure saturation of an extended time period needed for the SP titrations) SP interaction studies; CSPs above ≥2σ3 was the statistical threshold for ^1H/^15N backbone CSP analysis and ≥2xσ2 for ^1H/^13C methyl ILV data to identify all residues with a statistically significant change in its chemical shift upon SP interaction.
Residue specific KD values were calculated by using Eq. 2[23],2 CSPobs=CSPmax/2PP+S+KD−P+S+KD^2−4[S][P] where P and S are the concentration of PBP5 and SP1, respectively. CSPobs is the experimentally observed chemical shift value and CSPmax is the largest experimentally observed chemical shift value of the residue. […] The lack of saturation was due to the limited amount of available SP peptide due to their difficult synthesis. Residues used for KD calculation were common residues with statistically significant CSPs in the interaction studies of SP1 and SP2 with PBP5 at a 1:80 ratio.

[2] = test system: PBP5; test: 1D 1H STD NMR of stem peptides with PBP5; assay type: binding, Enterococcus faecium; conditions: for STD % to SP1: normalised to highest SP1:PBP5 value; for STD amplification factor: protein:peptide 1:100, 2 s saturation, 308 K
From the text: Total saturation time for STD measurements was 2 s.
Overlapped peaks were completely excluded from the analysis.

## D-Lac-L-Ala-D-iGln-Gly-D-Ala-D-Ala [SP4, SP with L-Lys(D-iAsn) replaced by Gly]
[1]
  interaction with PBP5 by CSPs, in words: interacts with PBP5 very poorly
[2]; 1H DA4β, DLacβ
  STD amplification factor as fraction of highest SP1:PBP5 value: 0.2081
  STD % to SP1: 20.809%
  STD amplification factor: 5.599
[2]; 1H DA5α
  STD amplification factor as fraction of highest SP1:PBP5 value: 0.5864
  STD % to SP1: 58.6405%
  STD amplification factor: 15.7792
[2]; 1H DA5β
  STD amplification factor as fraction of highest SP1:PBP5 value: 0.2717
  STD % to SP1: 27.1666%
  STD amplification factor: 7.3101
[2]; 1H DQ2α,Dlacα,DA4α,LA1α
  STD amplification factor as fraction of highest SP1:PBP5 value: 0.3132
  STD % to SP1: 31.3217%
  STD amplification factor: 8.428
[2]; 1H DQ2β (first listed)
  STD amplification factor as fraction of highest SP1:PBP5 value: 0.6761
  STD % to SP1: 67.6099%
  STD amplification factor: 18.1927
[2]; 1H DQ2β (second listed)
  STD amplification factor as fraction of highest SP1:PBP5 value: 0.8081
  STD % to SP1: 80.8137%
  STD amplification factor: 21.7457
[2]; 1H DQ2γ
  STD amplification factor as fraction of highest SP1:PBP5 value: 0.2977
  STD % to SP1: 29.7735%
  STD amplification factor: 8.012
[2]; 1H G3α
  STD amplification factor as fraction of highest SP1:PBP5 value: 0.19
  STD % to SP1: 19.0039%
  STD amplification factor: 5.114
[2]; 1H LA1β
  STD amplification factor as fraction of highest SP1:PBP5 value: 0.2515
  STD % to SP1: 25.1468%
  STD amplification factor: 6.767

## D-Ala-D-Ala [SP3]
[1]
  interaction with PBP5 by CSPs, in words: no CSPs were observed

## D-Lac-L-Ala-D-nGln-L-Lys(D-iAsn)-D-Ala-D-Ala [SP6]
[1]
  interaction with PBP5 by CSPs, in words: more akin to that of SP1 than SP4
[2]; 1H DA4α,LA1α,DQ2α
  STD amplification factor as fraction of highest SP1:PBP5 value: 0.3043
  STD % to SP1: 30.434%
  STD amplification factor: 8.1893
[2]; 1H DA4β, DLacβ
  STD amplification factor as fraction of highest SP1:PBP5 value: 0.3219
  STD % to SP1: 32.1881%
  STD amplification factor: 8.661
[2]; 1H DA5α
  STD amplification factor as fraction of highest SP1:PBP5 value: 0.8446
  STD % to SP1: 84.4584%
  STD amplification factor: 22.7264
[2]; 1H DA5β
  STD amplification factor as fraction of highest SP1:PBP5 value: 0.4039
  STD % to SP1: 40.3917%
  STD amplification factor: 10.8688
[2]; 1H DQ2β (first listed)
  STD amplification factor as fraction of highest SP1:PBP5 value: 0.9448
  STD % to SP1: 94.4801%
  STD amplification factor: 25.4231
[2]; 1H DQ2β (second listed)
  STD amplification factor as fraction of highest SP1:PBP5 value: 1.053
  STD % to SP1: 105.321%
  STD amplification factor: 28.3401
[2]; 1H DQ2γ
  STD amplification factor as fraction of highest SP1:PBP5 value: 0.4867
  STD % to SP1: 48.6725%
  STD amplification factor: 13.097
[2]; 1H K3β
  STD amplification factor as fraction of highest SP1:PBP5 value: 0.991
  STD % to SP1: 99.098%
  STD amplification factor: 26.6657
[2]; 1H K3δ
  STD amplification factor as fraction of highest SP1:PBP5 value: 0.802
  STD % to SP1: 80.2012%
  STD amplification factor: 21.5809
[2]; 1H LA1β
  STD amplification factor as fraction of highest SP1:PBP5 value: 0.4375
  STD % to SP1: 43.7522%
  STD amplification factor: 11.773
[2]; 1H iNα ,Dlacα,K3α
  STD amplification factor as fraction of highest SP1:PBP5 value: 0.4025
  STD % to SP1: 40.2497%
  STD amplification factor: 10.8306
[2]; 1H iNβ
  STD amplification factor as fraction of highest SP1:PBP5 value: 0.4322
  STD % to SP1: 43.2239%
  STD amplification factor: 11.6309

## D-Lac-L-Ala-D-iGln-L-Lys-D-Ala-D-Ala [SP5]
[1]
  interaction with PBP5 by CSPs, in words: weaker interaction
[2]; 1H D5α
  STD amplification factor as fraction of highest SP1:PBP5 value: 0.4969
  STD % to SP1: 49.685%
  STD amplification factor: 13.3694
[2]; 1H DA4α,LA1α
  STD amplification factor as fraction of highest SP1:PBP5 value: 0.2481
  STD % to SP1: 24.8062%
  STD amplification factor: 6.675
[2]; 1H DA4β, DLacβ
  STD amplification factor as fraction of highest SP1:PBP5 value: 0.2031
  STD % to SP1: 20.3132%
  STD amplification factor: 5.466
[2]; 1H DA5β
  STD amplification factor as fraction of highest SP1:PBP5 value: 0.283
  STD % to SP1: 28.3024%
  STD amplification factor: 7.616
[2]; 1H DQ2α,Dlacα
  STD amplification factor as fraction of highest SP1:PBP5 value: 0.2004
  STD % to SP1: 20.0424%
  STD amplification factor: 5.393
[2]; 1H DQ2β (first listed)
  STD amplification factor as fraction of highest SP1:PBP5 value: 0.5843
  STD % to SP1: 58.4308%
  STD amplification factor: 15.7228
[2]; 1H DQ2β (second listed)
  STD amplification factor as fraction of highest SP1:PBP5 value: 0.7133
  STD % to SP1: 71.3266%
  STD amplification factor: 19.1928
[2]; 1H DQ2γ
  STD amplification factor as fraction of highest SP1:PBP5 value: 0.2744
  STD % to SP1: 27.4437%
  STD amplification factor: 7.385
[2]; 1H K3α
  STD amplification factor as fraction of highest SP1:PBP5 value: 0.381
  STD % to SP1: 38.104%
  STD amplification factor: 10.2532
[2]; 1H K3β
  STD amplification factor as fraction of highest SP1:PBP5 value: 0.5122
  STD % to SP1: 51.2163%
  STD amplification factor: 13.7815
[2]; 1H K3δ
  STD amplification factor as fraction of highest SP1:PBP5 value: 0.5418
  STD % to SP1: 54.1786%
  STD amplification factor: 14.5786
[2]; 1H K3ε
  STD amplification factor as fraction of highest SP1:PBP5 value: 0.2671
  STD % to SP1: 26.7058%
  STD amplification factor: 7.186
[2]; 1H LA1β
  STD amplification factor as fraction of highest SP1:PBP5 value: 0.2119
  STD % to SP1: 21.1895%
  STD amplification factor: 5.702
